These results are taken from ChEMBL document CHEMBL3880410, “Novel oxabispidine compounds and their use in the treatment of cardiac arrhythmias” (2009).

This experiment relates to Cavia porcellus. The experiment is described as follows: Anti-cardiac arrhythmia activity in anaesthetised guinea pig assessed as cumulative dose inducing prolongation of monophasic action potential duration by 10% from baseline administered as first dose infusion in 0.2 mL/kg into jugular vein catheter for 30 secs followed by next dosing after 5 mins for 6 to 10 consecutive times by electrophysiology based assay. The format is functional.
As for `N#Cc1ccc(OCCCN2CC3CN(CCNS(=O)(=O)c4cccc(C#N)c4)CC(C2)O3)cc1`, the D10 was greater than 5.5 mg/kg.

With `N#Cc1ccc(OCCCN2CC3CN(CCNS(=O)(=O)c4ccc5c(c4)CCO5)CC(C2)O3)cc1`, the D10 is greater than 5.5 mg/kg. Turning to `Cc1noc(C)c1S(=O)(=O)NCCCN1CC2CN(Cc3ccc(C#N)cc3)CC(C1)O2`, the D10 is greater than 5.5 mg/kg. To `N#Cc1ccc(S(=O)(=O)NCCCN2CC3CN(CCOc4ccc(C#N)cc4F)CC(C2)O3)cc1` belongs greater than 5.5 mg/kg; to `N#Cc1ccc(OCCN2CC3CN(CCNS(=O)(=O)c4ccc5c(c4)CCO5)CC(C2)O3)c(F)c1`, greater than 5.5 mg/kg; to `N#Cc1ccc(S(=O)(=O)NCCN2CC3CN(CCc4ccccc4)CC(C2)O3)cc1`, greater than 5.5 mg/kg. With `N#Cc1ccc(OCCN2CC3CN(CCNS(=O)(=O)c4cccc(F)c4)CC(C2)O3)cc1`, the D10 is greater than 5.5 mg/kg. In the case of `N#Cc1ccc(OCCN2CC3CN(CCCNS(=O)(=O)c4ccccc4)CC(C2)O3)cc1`, the D10 is greater than 5.5 mg/kg. For `N#Cc1ccc(OCCN2CC3CN(CCNS(=O)(=O)c4ccccc4F)CC(C2)O3)cc1`, the D10 is greater than 5.5 mg/kg. As for `Cc1noc(C)c1S(=O)(=O)NCCN1CC2CN(Cc3ccc(C#N)cc3)CC(C1)O2`, the D10 was greater than 5.5 mg/kg. Under `Cc1oncc1S(=O)(=O)NCCN1CC2CN(CCCOc3ccc(C#N)cc3)CC(C1)O2` stands greater than 5.5 mg/kg; under `CN(CCN1CC2CN(Cc3ccc(C#N)cc3)CC(C1)O2)S(=O)(=O)c1ccc(C#N)cc1`, greater than 5.5 mg/kg; under `CN(CCN1CC2CN(Cc3ccccc3)CC(C1)O2)S(=O)(=O)c1ccc(C#N)cc1`, greater than 5.5 mg/kg. To `Cc1noc(C)c1CN1CC2CN(CCNS(=O)(=O)c3ccc(C#N)cc3)CC(C1)O2` belongs greater than 5.5 mg/kg; to `CN(CCN1CC2CN(Cc3ccc(F)cc3)CC(C1)O2)S(=O)(=O)c1ccc(C#N)cc1`, greater than 5.5 mg/kg; to `N#Cc1ccc(OCCCN2CC3CN(CCNS(=O)(=O)c4cccc(F)c4)CC(C2)O3)cc1`, greater than 5.5 mg/kg. Turning to `Cc1noc(C)c1S(=O)(=O)NCCCN1CC2CN(CCOc3ccc(C#N)cc3)CC(C1)O2`, the D10 was greater than 5.5 mg/kg. Under `N#Cc1ccc(S(=O)(=O)NCCN2CC3CN(Cc4ccccc4C#N)CC(C2)O3)cc1` stands greater than 5.5 mg/kg. Under `N#Cc1ccc(OCCN2CC3CN(CCCNS(=O)(=O)c4ccccc4F)CC(C2)O3)cc1` stands greater than 5.5 mg/kg; under `N#Cc1ccc(S(=O)(=O)NCCN2CC3CN(CCc4ccc(Cl)cc4)CC(C2)O3)cc1`, greater than 5.5 mg/kg. For the compound `Cc1noc(C)c1CN1CC2CN(CCS(=O)(=O)N(Cc3ccc(C#N)cc3)Cc3c(C)noc3C)CC(C1)O2`, the D10 was greater than 5.5 mg/kg. As to `N#Cc1ccc(S(=O)(=O)NCCN2CC3CN(CCCOc4cccc(F)c4)CC(C2)O3)cc1`, the D10 is greater than 5.5 mg/kg. In the case of `N#Cc1ccc(S(=O)(=O)NCCN2CC3CN(Cc4c[nH]c5ccccc45)CC(C2)O3)cc1`, the D10 was greater than 5.5 mg/kg.

`Cc1noc(C)c1CN1CC2CN(CCS(=O)(=O)NCc3ccc(C#N)cc3)CC(C1)O2`: the D10 was greater than 5.5 mg/kg. Under `N#Cc1ccc(S(=O)(=O)NCCN2CC3CN(CCc4ccc(C(F)(F)F)cc4)CC(C2)O3)cc1` stands greater than 5.5 mg/kg. Under `N#Cc1ccc(S(=O)(=O)NCCN2CC3CN(Cc4c[nH]c5ccc(F)cc45)CC(C2)O3)cc1` stands greater than 5.5 mg/kg. Take `N#Cc1ccc(S(=O)(=O)NCCN2CC3CN(CCc4cccc(F)c4)CC(C2)O3)cc1`: the D10 was greater than 5.5 mg/kg. For the compound `Cc1noc(C)c1S(=O)(=O)NCCCN1CC2CN(CCCOc3ccc(C#N)cc3)CC(C1)O2`, the D10 was greater than 5.5 mg/kg. Under `Cc1[nH]c2ccccc2c1CN1CC2CN(CCNS(=O)(=O)c3ccc(C#N)cc3)CC(C1)O2` stands greater than 5.5 mg/kg; under `N#Cc1ccc(S(=O)(=O)NCCN2CC3CN(CCCOc4ccc(C#N)cc4F)CC(C2)O3)cc1`, greater than 5.5 mg/kg; under `Cc1nn(C)c(Cl)c1S(=O)(=O)NCCN1CC2CN(CCOc3ccc(C#N)cc3)CC(C1)O2`, greater than 5.5 mg/kg. With `N#Cc1ccc(OCCCN2CC3CN(CCCNS(=O)(=O)c4ccccc4)CC(C2)O3)cc1`, the D10 was greater than 5.5 mg/kg. For `N#Cc1ccc(OCCN2CC3CN(CCNS(=O)(=O)c4ccccc4C#N)CC(C2)O3)cc1`, the D10 is greater than 5.5 mg/kg. Regarding `N#Cc1ccc(OCCN2CC3CN(CCNS(=O)(=O)c4cccc(F)c4)CC(C2)O3)c(F)c1`, the D10 was greater than 5.5 mg/kg. To `N#Cc1ccc(S(=O)(=O)NCCN2CC3CN(CCCOc4ccc(F)c(F)c4)CC(C2)O3)cc1` belongs greater than 5.5 mg/kg; to `N#Cc1ccc(OCCN2CC3CN(CCCNS(=O)(=O)c4ccc(F)cc4)CC(C2)O3)c(F)c1`, greater than 5.5 mg/kg. Consider `Cc1noc(C)c1S(=O)(=O)NCCN1CC2CN(CCOc3ccc(C#N)cc3F)CC(C1)O2`, for which the D10 was greater than 5.5 mg/kg. Under `N#Cc1ccc(S(=O)(=O)NCCN2CC3CN(CCOc4c(F)cccc4F)CC(C2)O3)cc1` stands greater than 5.5 mg/kg; under `N#Cc1ccc(S(=O)(=O)NCCN2CC3CN(CCOc4ccccc4F)CC(C2)O3)cc1`, greater than 5.5 mg/kg. In the case of `N#Cc1ccc(S(=O)(=O)NCCN2CC3CN(CCCOc4c(F)cc(C#N)cc4F)CC(C2)O3)cc1`, the D10 is greater than 5.5 mg/kg. Under `N#Cc1ccc(OCCN2CC3CN(CCNS(=O)(=O)c4ccc(F)cc4)CC(C2)O3)c(F)c1` stands greater than 5.5 mg/kg.

`N#Cc1ccc(CN2CC3CN(CCNS(=O)(=O)Cc4ccccc4)CC(C2)O3)cc1`: the D10 was greater than 5.5 mg/kg. To `N#Cc1ccc(OCCCN2CC3CN(CCCNS(=O)(=O)Cc4ccccc4)CC(C2)O3)cc1` belongs greater than 5.5 mg/kg. Under `N#Cc1ccc(OCCN2CC3CN(CCCNS(=O)(=O)c4ccccc4)CC(C2)O3)c(F)c1` stands greater than 5.5 mg/kg; under `N#Cc1ccc(OCCN2CC3CN(CCNS(=O)(=O)c4cccc(C#N)c4)CC(C2)O3)cc1`, greater than 5.5 mg/kg; under `CN(CCN1CC2CN(CCc3ccccc3F)CC(C1)O2)S(=O)(=O)c1ccc(C#N)cc1`, greater than 5.5 mg/kg.

Turning to `N#Cc1ccc(S(=O)(=O)NCCN2CC3CN(Cc4coc5ccccc45)CC(C2)O3)cc1`, the D10 was greater than 5.5 mg/kg.

For `Cc1cc(C)n(CCN2CC3CN(CCNS(=O)(=O)c4ccc(C#N)cc4)CC(C2)O3)n1`, the D10 was greater than 5.5 mg/kg. Consider `N#Cc1ccc(CNS(=O)(=O)CCN2CC3CN(Cc4ccccc4C#N)CC(C2)O3)cc1`, for which the D10 was greater than 5.5 mg/kg. Take `N#Cc1ccc(S(=O)(=O)NCCN2CC3CN(CCc4ccc(F)c(F)c4)CC(C2)O3)cc1`: the D10 is greater than 5.5 mg/kg. On to `N#Cc1ccc(CNS(=O)(=O)CCN2CC3CN(Cc4ccc(C#N)cc4)CC(C2)O3)cc1`, for which the D10 is greater than 5.5 mg/kg. As for `CC(C)S(=O)(=O)NCCCN1CC2CN(CCCOc3ccc(C#N)cc3)CC(C1)O2`, the D10 was greater than 5.5 mg/kg.

In the case of `Cc1nn(C)c(Cl)c1S(=O)(=O)NCCN1CC2CN(CCCOc3ccc(C#N)cc3)CC(C1)O2`, the D10 was greater than 5.5 mg/kg.

On to `N#Cc1ccc(OCCN2CC3CN(CCNS(=O)(=O)Cc4ccccc4)CC(C2)O3)c(F)c1`, for which the D10 is greater than 5.5 mg/kg.

As for `COc1ccc(S(=O)(=O)NCCN2CC3CN(CCCOc4ccc(C#N)cc4)CC(C2)O3)cc1`, the D10 was greater than 5.5 mg/kg. Consider `N#Cc1ccc(S(=O)(=O)NCCN2CC3CN(CCc4c(F)cccc4F)CC(C2)O3)cc1`, for which the D10 was greater than 5.5 mg/kg. In the case of `N#Cc1ccc(OCCN2CC3CN(CCCNS(=O)(=O)c4ccc(F)cc4)CC(C2)O3)cc1`, the D10 is greater than 5.5 mg/kg. To `N#Cc1ccc(S(=O)(=O)NCCN2CC3CN(CCc4ccccc4F)CC(C2)O3)cc1` belongs greater than 5.5 mg/kg; to `N#Cc1ccc(OCCN2CC3CN(CCCNS(=O)(=O)c4ccc(F)cc4F)CC(C2)O3)cc1`, greater than 5.5 mg/kg; to `N#Cc1ccc(CN2CC3CN(CCNS(=O)(=O)c4cccc(C#N)c4)CC(C2)O3)cc1`, greater than 5.5 mg/kg. As to `CN(CCN1CC2CN(CCc3ccccc3)CC(C1)O2)S(=O)(=O)c1ccc(C#N)cc1`, the D10 was greater than 5.5 mg/kg. Under `CN(CCN1CC2CN(CCc3cccc(F)c3)CC(C1)O2)S(=O)(=O)c1ccc(C#N)cc1` stands greater than 5.5 mg/kg; under `N#Cc1ccc(S(=O)(=O)NCCN2CC3CN(CCCOc4ccc(F)cc4)CC(C2)O3)cc1`, greater than 5.5 mg/kg; under `N#Cc1ccc(CN2CC3CN(CCNS(=O)(=O)c4ccccc4C#N)CC(C2)O3)cc1`, greater than 5.5 mg/kg. For `N#Cc1ccc(S(=O)(=O)NCCN2CC3CN(CCCOc4cc(F)ccc4F)CC(C2)O3)cc1`, the D10 was greater than 5.5 mg/kg.

In the case of `N#Cc1ccc(CNS(=O)(=O)CCN2CC3CN(CCc4ccc(F)cc4)CC(C2)O3)cc1`, the D10 was greater than 5.5 mg/kg. Under `N#Cc1cccc(S(=O)(=O)NCCN2CC3CN(CCOc4ccc(C#N)cc4F)CC(C2)O3)c1` stands greater than 5.5 mg/kg; under `N#Cc1ccc(S(=O)(=O)NCCN2CC3CN(CCCOc4ccccc4F)CC(C2)O3)cc1`, greater than 5.5 mg/kg; under `N#Cc1ccc(OCCN2CC3CN(CCNS(=O)(=O)c4ccccc4)CC(C2)O3)c(F)c1`, greater than 5.5 mg/kg.

For the compound `N#Cc1ccc(OCCCN2CC3CN(CCNS(=O)(=O)c4ccccc4C#N)CC(C2)O3)cc1`, the D10 is greater than 5.5 mg/kg. To `N#Cc1ccc(OCCN2CC3CN(CCNS(=O)(=O)c4ccc5c(c4)CCO5)CC(C2)O3)cc1` belongs greater than 5.5 mg/kg. Regarding `N#Cc1ccc(OCCN2CC3CN(CCCNS(=O)(=O)Cc4ccccc4)CC(C2)O3)cc1`, the D10 is greater than 5.5 mg/kg.

As to `N#Cc1ccc(OCCN2CC3CN(CCCNS(=O)(=O)c4ccc(F)cc4F)CC(C2)O3)c(F)c1`, the D10 is greater than 5.5 mg/kg. To `N#Cc1ccc(S(=O)(=O)NCCN2CC3CN(CCOc4ccc(C#N)cc4F)CC(C2)O3)cc1` belongs greater than 5.5 mg/kg. As for `N#Cc1ccc(S(=O)(=O)NCCN2CC3CN(Cc4nc5ccccc5o4)CC(C2)O3)cc1`, the D10 is greater than 5.5 mg/kg. Under `COc1ccc(S(=O)(=O)NCCN2CC3CN(CCOc4ccc(C#N)cc4)CC(C2)O3)cc1` stands greater than 5.5 mg/kg.
